The source of these data is ChEMBL document CHEMBL1949614, “Advent of Imidazo[1,2-a]pyridine-3-carboxamides with Potent Multi- and Extended Drug Resistant Antituberculosis Activity” (ACS Med Chem Lett, 2011).

Holding throughout (type): functional
Assay [1] concerns Mycobacterium tuberculosis. As to the kind of experiment: Antitubercular activity against multidrug-resistant isoniazid, rifampicin, ethambutol, streptomycin, p-aminosalicylic acid-resistant Mycobacterium tuberculosis by microbroth dilution assay.
Assay [2] has as its system Mycobacterium tuberculosis. As to the kind of experiment: Antitubercular activity against multidrug-resistant isoniazid, rifampicin, ethambutol, pyrazinamide, streptomycin, p-aminosalicylic acid-resistant Mycobacterium tuberculosis clinical isolate by microbroth dilution assay.
For assay [3], the system named is Mycobacterium tuberculosis. Put plainly: Antitubercular activity against multidrug-resistant isoniazid, cycloserine, p-aminosalicylic acid, ethionamide/thioacetazone-resistant Mycobacterium tuberculosis clinical isolate by microbroth dilution assay.
Assay [4] has as its system Mycobacterium tuberculosis. Put plainly: Antitubercular activity against multidrug-resistant isoniazid, rifampicin, ethambutol, kanamycin, p-aminosalicylic acid-resistant Mycobacterium tuberculosis clinical isolate by microbroth dilution assay.
Assay [5] deals with Mycobacterium tuberculosis. Put plainly: Antitubercular activity against multidrug-resistant isoniazid, rifampicin, ethambutol, rifabutin-resistant Mycobacterium tuberculosis clinical isolate by microbroth dilution assay.
The subject of assay [6] is Mycobacterium tuberculosis. Put plainly: Antitubercular activity against multidrug-resistant isoniazid, rifampicin, ethambutol, pyrazinamide, streptomycin, kanamycin, p-aminosalicylic acid, ethionamide/thioacetazone-resistant Mycobacterium tuberculosis clinical isolate by microbroth dilution assay.
In assay [7] the test system is Mycobacterium tuberculosis. Put plainly: Antitubercular activity against multidrug-resistant isoniazid, rifampicin, ethambutol, pyrazinamide, rifabutin, thioacetazone/ethionamide-resistant Mycobacterium tuberculosis clinical isolate by microbroth dilution assay.
Assay [8] has as its system Mycobacterium tuberculosis. As to the kind of experiment: Antitubercular activity against extensively drug-resistant isoniazid, rifampicin, ethambutol, streptomycin, cycloserine, p-aminosalicylic acid, ethionamide/thioacetazone, ofloxacin-resistant Mycobacterium tuberculosis clinical isolate by microbroth dilution assay.
For assay [9], the system named is Mycobacterium tuberculosis. As to the kind of experiment: Antitubercular activity against extensively drug-resistant isoniazid, rifampicin, ethambutol, kanamycin, p-aminosalicylic acid, ethionamide/thioacetazone, ofloxacin-resistant Mycobacterium tuberculosis clinical isolate by microbroth dilution assay.
The subject of assay [10] is Mycobacterium tuberculosis. As to the kind of experiment: Antitubercular activity against extensively drug-resistant isoniazid, rifampicin, ethambutol, streptomycin, p-aminosalicylic acid, ofloxacin-resistant Mycobacterium tuberculosis clinical isolate by microbroth dilution assay.

≈ marks a conversion by molar mass, not a printed value.

`Cc1ccn2c(C(=O)NCc3ccccc3)c(C)nc2c1`: the MIC90 in [1] worked out at 2.24 µM (≈ 0.626 µg/mL); in assay [2] it was 1.12 µM (≈ 0.313 µg/mL); in assay [3], 1.12 µM (≈ 0.313 µg/mL); in assay [4], 0.28 µM (≈ 0.0782 µg/mL); in assay [5], 0.14 µM (≈ 0.0391 µg/mL); in [6], 0.07 µM (≈ 0.0196 µg/mL). The MIC90 in assay [7] worked out at 0.14 µM (≈ 0.0391 µg/mL); in assay [8], 0.07 µM (≈ 0.0196 µg/mL); in assay [9], 0.07 µM (≈ 0.0196 µg/mL); in [10] it was 0.14 µM (≈ 0.0391 µg/mL).
As to `Cc1ccn2c(C(=O)NCc3cccc(F)c3)c(C)nc2c1`, the MIC90 in [1] was 0.26 µM (≈ 0.0773 µg/mL); in [2], 0.06 µM (≈ 0.0178 µg/mL); in assay [3], 0.26 µM (≈ 0.0773 µg/mL); in assay [4], 0.26 µM (≈ 0.0773 µg/mL); in [5], 0.13 µM (≈ 0.0387 µg/mL); in assay [6] it was 0.06 µM (≈ 0.0178 µg/mL). Besides, the MIC90 is 0.06 µM (≈ 0.0178 µg/mL) in assay [7], 0.07 µM (≈ 0.0208 µg/mL) in [8], 0.03 µM (≈ 0.00892 µg/mL) in [9] and 0.03 µM (≈ 0.00892 µg/mL) in assay [10].
Turning to `COc1cccc(CNC(=O)c2c(C)nc3cc(C)ccn23)c1`, the MIC90 is 1.01 µM (≈ 0.312 µg/mL) in assay [1]; 0.06 µM (≈ 0.0186 µg/mL) in assay [2]; 0.13 µM (≈ 0.0402 µg/mL) in [3]; 0.13 µM (≈ 0.0402 µg/mL) in assay [4]; at most 0.03 µM in assay [5]; at most 0.03 µM in assay [6]. Besides, the MIC90 in [7] was determined as 0.06 µM (≈ 0.0186 µg/mL); in [8], 0.03 µM (≈ 0.00928 µg/mL); in [9] it was 0.02 µM (≈ 0.00619 µg/mL); in assay [10], 0.02 µM (≈ 0.00619 µg/mL).
